Results as given in patent publication USRE38425E1, “Semicarbazones having CNS activity and pharmaceutical preparations containing same” (University of Saskatchewan Technologies, Inc., priority 1995, dated 2004).

What was measured:
rats [1] = experiment: neurotoxicity screen after oral administration to rats; details: oral dosing of rats; 500 mg/kg
Description: (§2) Initially doses of 50 mg/kg of the semicarbazones were administered.

kindled rat = kindled rat test (corneal kindled rat screen); type: in vivo, rats; details: Rattus norvegicus; read-out: ED50 (dose required to reduce seizures from stage 5 to stage 3 or less)
Excerpt: Particularly preferred compounds according to the present invention are 4-(4′-fluorophenoxy)benzaldehyde semicarbazone and 4-(thiophenoxy)benzaldehyde semicarbazone. […] Incidentally, the kindled rat screen is described by R. J. Racine in “Modification of Seizure Activity by Electrical Stimulation. II. Motor Seizure”, Electroencephalogr.Clin.Neurophysiol., 1972, 32, 281-294, and by G. Skeen et al. In “Development of Kindled Seizures Following Electrical Stimulation via the Cornea”, Soc.Neurosci., 1990, 16(1), 307; the disclosures of which are incorporated herein by reference.
The kindled rat test was undertaken by reported procedures (as indicated above). Compound 4b was administered orally and the animals challenged with electrical stimuli 2h later. The ED50 is the dose required to reduce seizures from stage 5 to stage 3 or less and these stages are described as follows namely stage 1 is mouth and facial clonus, stage 2 is stage 1 plus head nodding, stage 3 is stage 2 plus forelimb clonus, stage 4 is stage 3 plus rearing and stage 5 is stage 4 plus repeated rearing and falling.

rats [2] = experiment: MES screen after intraperitoneal injection into rats; type: in vivo; details: Rattus norvegicus, ip, 4 h
in vivo [3] = details: rat, ip
mice [4] = details: intraperitoneal injection in mice; time t (h) per compound as in the table
Description: An initial anticonvulsant evaluation of the compounds prepared according to Example 1 was undertaken by administering the compounds by the intraperitoneal route to mice. Protection and/or neurotoxicity was noted 0.5 and 4 hours after administering doses of 30, 100 and 300 mg/kg of each semicarbazone to the animals.
Doses of 30, 100 and 300 mg/kg were injected by the intraperitoneal route into mice and evaluated in the MES, scPTZ and neurotoxicity screens one half and four hours after administration.

rats [5] = experiment: MES screen after oral administration to rats
Description: The majority of the compounds were examined for oral activity in rats. Initially doses of 50 mg/kg of the semicarbazones were administered.
Evaluation of most of the semicarbazones and analogs in the MES and neurotoxicity tests after oral administration to rats was performed.

rats [6] = experiment: scPTZ screen after intraperitoneal administration to rats; type: in vivo; details: for protection in the scPTZ screen, rats protected: intraperitoneal administration to rats
epileptic chicken = epileptic chicken model (intermittent photic stimulation); type: in vivo; details: Gallus gallus; convulsions induced by intermittent photic stimulation
Excerpt: Two series of compounds were examined with the aim of observing whether oxygen or sulfur is a preferable spacer atom between the two aryl rings and also to compare the ED50 figures with those obtained in the rat oral and mouse intraperitoneal screens.

rats [7] = details: rat, in vivo, ip
mice [8] = experiment: subcutaneous picrotoxin test; type: in vivo
Excerpt: (§1) Compound 4b was also examined for protective effects after subcutaneous administration of strychnine. […] Two animals per dose were used except in the bicuculline and picrotoxin tests for 4b in which cases, 8 or 16 animals per dose were employed.

mice [9] = experiment: timed intravenous pentylenetetrazole test; type: in vivo; details: for quantity of pentylenetetrazole administered (SE) to clonus / quantity of pentylenetetrazole administered (SE) to first twitch: mice i.p.
Description: The times from the commencement-of the infusion until the appearances of the first twitch and also the onset of clonus were recorded for the test and control animals. […] Ten animals were used as controls and for each dose administered except for the 13 mg/kg dose of 4b in which case 9 animals were employed.

mice [10] = experiment: MES screen after intraperitoneal injection in mice; type: in vivo; details: time t (h) per compound as in the table
in vivo [11] = details: mouse, ip
in vivo [12] = details: rat, po
Description: as §2

mice [13] = experiment: subcutaneous strychnine test; type: in vivo; details: dose range of 13.5-108 mg/kg
Excerpt: as §1

[14] = test system: rat livers (liver microsomal system); experiment: effect of chronic oral administration on rat livers; type: in vivo, rats; details: 100 mg/kg orally daily for three days; p>0.05
Description: Further bioevaluations of compound 4b were undertaken.
Rats were administered 100 mg/kg of 4b daily for 3 days. The livers were removed, weighed and the effect of 4b on the liver microsomal system were compared to control animals which received only the vehicle (sonicated 0.5% methylcellulose).^21-23

rats [15] = details: oral administration to rats; examined ¼-24 h; data taken from reference 1; cited from earlier work
mice [16] = experiment: subcutaneous bicuculline test; type: in vivo
Excerpt: as §1

[17] = oral administration to rats, dose 50 mg/kg, 0.25 h
[18] = oral administration to rats, dose 50 mg/kg, 0.5 h
[19] = oral administration to rats, dose 50 mg/kg, 1 h
[20] = oral administration to rats, dose 50 mg/kg, 2 h
[21] = oral administration to rats, dose 50 mg/kg, 4 h
[22] = various doses (5g 12-96 mg/kg), given 1 h (4b) or 0.5 h (5g) before
[23] = TD50 dose (4b 108 mg/kg, 5g 95 mg/kg)
[24] = approximate MES ED50 dose (4b 13 mg/kg, 5g 15 mg/kg)

## NC(=O)NN=Cc1ccc(Oc2ccc(F)cc2)cc1 [Compound 4b, 4-(4′-fluorophenoxy)benzaldehyde semicarbazone]
Rats [1]
  neurotoxicity at the maximum dose utilized: absence of neurotoxicity
Kindled rat
  ED50: 3.93 mg/kg
Rats [2]
  ED50: 2.37 mg/kg
In vivo [3]
  TD50 at 4 h: 80.1 mg/kg
Mice [4]
  acPTZ screen ED50: >54 mg/kg
Rats [5]; Rattus norvegicus, po, read-out: MES screen ED50 (mg/kg), oral administration to rats, time t (h) per compound as in the table
  ED50: 1.59 mg/kg
Rats [5]; [17]
  MES screen 0.25 h: number of rats out of 4 which were protected: 2
  MES screen: number of rats out of 4 which were protected: 2
Rats [5]; [18]
  MES screen 0.5 h: number of rats out of 4 which were protected: 4
  MES screen: number of rats out of 4 which were protected: 4
Rats [5]; [19]
  MES screen 1 h: number of rats out of 4 which were protected: 4
  MES screen: number of rats out of 4 which were protected: 4
Rats [5]; [20]
  MES screen 2 h: number of rats out of 4 which were protected: 4
  MES screen: number of rats out of 4 which were protected: 4
Rats [5]; [21]
  MES screen 4 h: number of rats out of 4 which were protected: 4
  MES screen: number of rats out of 4 which were protected: 4
Rats [6]; 125 mg/kg
  protection in the scPTZ screen, rats protected: 0/2
Rats [6]; 250 mg/kg
  protection in the scPTZ screen, rats protected: 1/10
Rats [6]; rats, dose of 125 mg/kg
  protection in the scPTZ screen: did not afford protection
Rats [6]; rats, dose of 250 mg/kg
  rats protected in the scPTZ screen: 10%
Epileptic chicken
  ED50: 1.5 mg/kg
Rats [7]
  slope (SE) of the TD50: 17.02(6.41)
Mice [8]; 27 mg/kg
  protection in the subcutaneous picrotoxin test (animals protected): 1/8
Mice [8]; 108 mg/kg
  protection in the subcutaneous picrotoxin test (animals protected): 5/16
Mice [8]; 216 mg/kg
  protection in the subcutaneous picrotoxin test (animals protected): 2/8
Mice [8]; [22]
  protection against convulsions induced by subcutaneous picrotoxin: partial protection
Mice [9]; [23]
  quantity of pentylenetetrazole administered (SE) to clonus: 42.1(1.4) mg/kg
  quantity of pentylenetetrazole administered (SE) to first twitch: 32.6(0.8) mg/kg
Mice [9]; [24]
  quantity of pentylenetetrazole administered (SE) to clonus: 37.6(1.5) mg/kg
  quantity of pentylenetetrazole administered (SE) to first twitch: 32.3(1.4) mg/kg
Mice [9]; mice, dose of 108 mg/kg
  effect on time to clonus: increased the time to clonus
Mice [9]; mice, intraperitoneal doses = MES ED50 and TD50 figures, pentylenetetrazole infused after 1 h
  proconvulsant properties: Neither compound possessed this undesirable feature
Mice [10]; Mus musculus, ip, read-out: MES screen ED50 (mg/kg), intraperitoneal injection in mice
  ED50: 15 to 25 mg/kg
Mice [10]; intraperitoneal injection in mice
  MES screen ED50: 12.86 mg/kg
In vivo [11]
  TD50: 108 mg/kg
In vivo [12]
  TD50: > 500 mg/kg
Mice [13]
  protection in the subcutaneous strychnine test: no protection
[14]
  differences between livers from treated and control rats (liver weights, microsomal protein yields, hepatic enzyme activities): No differences
Rats [15]
  neurotoxicity screen TD50: >500 mg/kg
Mice [16]; 54 mg/kg
  number of animals protected in the subcutaneous bicuculline test: 0/8
Mice [16]; 108 mg/kg
  number of animals protected in the subcutaneous bicuculline test: 3/8
Mice [16]; 216 mg/kg
  number of animals protected in the subcutaneous bicuculline test: 3/8
Mice [16]; [22]
  protection against convulsions induced by subcutaneous bicuculline: partial protection
